Assay results taken from patent US12077485B2, “Lipid nanoparticle compositions for delivering circular polynucleotides” (Orna Therapeutics, Inc., priority 2021, dated 2024).

How the values were obtained:
[1] = system: splenic T cells; experiment: mOX40L expression in splenic T cells, flow cytometry; assay type: in vivo, C57BL/6 female mice; settings: 1 mg/kg intravenously, 24 hours, IL:P 5.7
Experimental: The ionizable lipid: helper lipid: cholesterol: PEG-lipid molar ratio of these LNPs was 50:10:38.5:1.5. C57BL/6 female mice (6-8 weeks, n=4) were dosed at 1 mg/kg intravenously. At 24 hours, the spleen from the mice were collected for flow cytometry analysis, tested for weight loss and measured for serum alanine aminotransferase (ALT) after blood collection. mOX40L expression was measured in splenic T cells.

[2] = system: splenic immune cells (T cells, myeloid cells, B cells, NK cells); experiment: mOX40L expression in splenic immune cells, flow cytometry; assay type: in vivo, C57BL/6 female mice; settings: 1 mg/kg intravenously, 24 hours, IL:P 5.7, 50:10:38.5:1.5; compared to Lipid 15 of Table 10f
Experimental: The ionizable lipid: helper lipid: cholesterol: PEG-lipid molar ratio of these LNPs was 50:10:38.5:1.5. Dialysis of the LNPs were performed using PBS. C57BL/6 female mice (6-8 weeks, n=4) were dosed at either LNP comprising Lipid 1 of Table 10e or the Lipid 15 of Table 10f at 1 mg/kg intravenously. At 24 hours, the spleen from the mice were collected for flow cytometry analysis. mOX40L transfection of Lipid 1 of Table 10e and Lipid 15 of Table 10f were compared in T cells, myeloid cells, B cells, and NK cells.

CCCCCCCCCCCCC(O)CN(CCCO)CCCCCCCC(=O)OC(CCCCCCCC)CCCCCCCC (centres unmarked) [Lipid 1 of Table 10e, heptadecan-9-yl 8-((3-hydroxypropyl)(2-hydroxytetradecyl)amino)octanoate]
expression of mOX40L in splenic T cells [1]: resulted in expression of mOX40L in splenic T cells
mOX40L transfection in splenic immune cells [2]: comparable or higher levels of mOX40L transfection
